# Assay results reported in ChEMBL document CHEMBL4428056 (J Med Chem, 2016).
# Calls of active or inactive are those of the source. The calls are words filed in the database; no cut-off is given here.
# Experiments:
# [1] = target: Galectin-3 (Homo sapiens, UniProt P17931); assay: Competitive binding affinity to recombinant human galectin-3 after 5 mins in presence of fluorescent probe by fluorescence polarization assay
# [2] = target: T1, Galectin-7 (Mus musculus, UniProt O54974); assay: Competitive binding affinity to recombinant mouse galectin-7 after 5 mins in presence of fluorescent probe beta-D-galactopyranosyl(1-4)-2- acetamido-2-deoxy-beta-D-glucopyranosyl(1-3)-beta-D-galactopyranosyl(1-4)-(N1-fluorescein-5-yl-carbonylaminomethylcarbonyl)-beta-D-glucopyranosylamine by fluorescence polarization assay
# T1 sequence (O54974 whole entry): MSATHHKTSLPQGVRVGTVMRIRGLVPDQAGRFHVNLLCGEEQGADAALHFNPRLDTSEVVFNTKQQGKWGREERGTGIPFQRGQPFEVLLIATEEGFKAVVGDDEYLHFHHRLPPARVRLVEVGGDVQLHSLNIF
# [3] = target: T2, Galectin-4 (Homo sapiens, UniProt P56470); assay: (§1) Competitive binding affinity to recombinant human galectin-4 N-terminal after 5 mins in presence of fluorescent probe 3,3'-dideoxy-3-[4-(fluorescein-5-yl-carbonylaminomethyl)-1H-1,2,3-triazol-1-yl]-3'-(3,5-dimethoxy-benzamido)-1,1'-sulfanediyl-di-beta-D-galactopyranoside by fluorescence polarization assay
# T2 sequence (P56470 whole entry): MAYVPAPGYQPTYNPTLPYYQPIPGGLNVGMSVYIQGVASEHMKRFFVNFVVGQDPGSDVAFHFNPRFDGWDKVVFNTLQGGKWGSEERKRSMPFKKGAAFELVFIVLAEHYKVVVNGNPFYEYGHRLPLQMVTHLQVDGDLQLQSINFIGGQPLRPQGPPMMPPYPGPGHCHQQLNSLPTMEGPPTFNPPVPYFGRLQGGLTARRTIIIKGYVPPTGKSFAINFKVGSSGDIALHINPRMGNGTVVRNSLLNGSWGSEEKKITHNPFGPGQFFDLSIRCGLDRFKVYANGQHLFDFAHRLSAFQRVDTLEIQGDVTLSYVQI
# [4] = target: T2, Galectin-4; assay: Competitive binding affinity to recombinant human galectin-4 C-terminal after 5 mins in presence of fluorescent probe 2-(fluorescein-5/6-yl-carbonyl)-aminoethyl 2-acetamido-2-deoxy-alpha-D-galactopyranosyl-(1-3)-[alpha-L-fucopyranosyl-(1-2)]-beta-D-galactopyranosyl-(1-4)-beta-D-glucopyranoside by fluorescence polarization assay
# [5] = target: T3, Galectin-8 (Homo sapiens, UniProt O00214); assay: Competitive binding affinity to recombinant human galectin-8 N-terminal after 5 mins in presence of fluorescent probe 2-(fluorescein-5-yl-carbonylamino)ethyl beta-D-galactopyranosyl(1-4)-2-acetamido-2-deoxy-beta-D-glucopyranosyl(1-3)-beta-D-galactopyranosyl(1-4)-beta-D-glucopyranoside by fluorescence polarization assay
# T3 sequence (O00214 whole entry): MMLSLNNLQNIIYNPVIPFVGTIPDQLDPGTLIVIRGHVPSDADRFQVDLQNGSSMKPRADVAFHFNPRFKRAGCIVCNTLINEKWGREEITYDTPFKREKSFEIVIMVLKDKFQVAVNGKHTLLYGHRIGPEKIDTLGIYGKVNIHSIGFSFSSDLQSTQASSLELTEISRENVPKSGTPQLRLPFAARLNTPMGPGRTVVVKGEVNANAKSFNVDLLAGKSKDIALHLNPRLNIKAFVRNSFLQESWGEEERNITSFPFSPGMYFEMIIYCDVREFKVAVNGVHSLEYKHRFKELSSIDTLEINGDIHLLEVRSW
# [6] = target: T4, Galectin-9 (Homo sapiens, UniProt O00182); assay: Competitive binding affinity to recombinant human galectin-9 N-terminal after 5 mins in presence of fluorescent probe 2-(fluorescein-5-yl-carbonylamino)ethyl-beta-D-galactopyranosyl(1-4)-2-acetamido-2-deoxy-beta-D-glucopyranosyl(1-3)-beta-D-galactopyranosyl(1-4)-beta-D-glucopyranoside by fluorescence polarization assay
# [7] = target: T4, Galectin-9; assay: as §1, with “galectin-9 C-terminal” for “galectin-4 N-terminal”
# [8] = Solubility of the compound in DMSO at 100 mM; format: physicochemical; details: 100000 µM
# [9] = target: Galectin-1 (Homo sapiens, UniProt P09382); assay: Competitive binding affinity to recombinant human galectin-1 after 5 mins in presence of fluorescent probe 3,3'-dideoxy-3-[4-(fluorescein-5-yl-carbonylaminomethyl)-1H-1,2,3-triazol-1-yl]-3'-(3,5-dimethoxy-benzamido)-1,1'-sulfanediyl-di-beta-D-galactopyranoside by fluorescence polarization assay
# [10] = target: T5, Galectin-2 (Homo sapiens, UniProt P05162); assay: Competitive binding affinity to recombinant human galectin-2 after 5 mins in presence of fluorescent probe ,[…]-3-[4-(fluorescein-5-yl-carbonylaminomethyl)-1H-1,2,3-triazol-1-yl]-3'-(3,5-dimethoxy-benzamido)-1,1'-sulfanediyl-di-beta-D-galactopyranoside by fluorescence polarization assay
# T5 sequence (P05162 whole entry): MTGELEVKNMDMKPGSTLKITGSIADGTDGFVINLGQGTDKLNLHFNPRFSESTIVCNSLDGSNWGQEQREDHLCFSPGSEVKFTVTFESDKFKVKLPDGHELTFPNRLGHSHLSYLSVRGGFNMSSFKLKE
# [11] = target: Galectin-3 (Homo sapiens, UniProt P17931, R144K); assay: (§2) Competitive binding affinity to recombinant human galectin-3 R144K mutant after 5 mins in presence of fluorescent probe 2-(fluorescein-5/6-yl-carbonyl)-aminoethyl 2-acetamido-2-deoxy-alpha-D-galactopyranosyl-(1-3)-[alpha-L-fucopyranosyl-(1-2)]-beta-D-galactopyranosyl-(1-4)-beta-D-glucopyranoside by fluorescence polarization assay
# [12] = target: Galectin-3 (Homo sapiens, UniProt P17931, R144S); assay: as §2, with “R144S” for “R144K”
# [13] = target: Galectin-3 (Homo sapiens, UniProt P17931, R186K); assay: (§3) Competitive binding affinity to recombinant human galectin-3 R186K mutant after 5 mins in presence of fluorescent probe beta-D-galactopyranosyl(1-4)-2-acetamido-2-deoxy-beta-D-glucopyranosyl(1-3)-beta-D-galactopyranosyl(1-4)-(N1-fluorescein-5-yl-carbonylaminomethylcarbonyl)-beta-D-glucopyranosylamine by fluorescence polarization assay
# [14] = target: Galectin-3 (Homo sapiens, UniProt P17931, R186S); assay: as §2, with “R186S” for “R144K”
# [15] = target: Galectin-3 (Homo sapiens, UniProt P17931, K176L); assay: as §3, with “K176L” for “R186K”
# [16] = system: Mus musculus; assay: Anti-fibrotic activity in C57/Bl6 mouse bleomycin-induced lung fibrosis model assessed as reduction in total lung collagen levels at 3.5 mg/kg administered intratracheally as 4 doses every 48 hrs commencing on day 18 of bleomycin induction measured on day 26 post last dose relative to control; format: functional; design: scale not given: the % may be the effect or the level left
# [17] = system: Mus musculus; assay: Anti-fibrotic activity in C57/Bl6 mouse bleomycin-induced lung fibrosis model assessed as reduction in total lung collagen levels at 0.35 to 1 mg/kg administered intratracheally as 4 doses every 48 hrs commencing on day 18 of bleomycin induction measured on day 26 post last dose; format: functional, organism-based
# [18] = system: Mus musculus; assay: (§4) Anti-fibrotic activity in C57/Bl6 mouse bleomycin-induced lung fibrosis model assessed as reduction in fibrosis score at 3.5 mg/kg administered intratracheally as 4 doses every 48 hrs commencing on day 18 of bleomycin induction measured on day 26 post last dose by Masson's trichrome staining based assay relative to control; format: functional, organism-based
# [19] = system: Mus musculus; assay: Effect on inflammatory score in bleomycin-induced C57/Bl6 mouse at 1 to 3.5 mg/kg administered intratracheally as 4 doses every 48 hrs commencing on day 18 of bleomycin induction measured on day 26 post last dose by Masson's trichrome staining based assay; format: functional, organism-based
# [20] = system: Mus musculus; assay: as §4, with “0.35 to 1” for “3.5”; format: functional, organism-based
# [21] = system: Mus musculus; assay: Effect on inflammatory response in C57/Bl6 mouse assessed as change in bleomycin-induced total protein levels in bronchoalveolar lavage fluid at 0.35 to 3.5 mg/kg administered intratracheally as 4 doses every 48 hrs commencing on day 18 of bleomycin induction measured on day 26 post last dose; format: functional, organism-based
# [22] = system: Mus musculus; assay: Effect on inflammatory response in C57/Bl6 mouse assessed as change in bleomycin-induced total cell counts in bronchoalveolar lavage fluid at 0.35 to 3.5 mg/kg administered intratracheally as 4 doses every 48 hrs commencing on day 18 of bleomycin induction measured on day 26 post last dose; format: functional, organism-based
# [23] = system: Mus musculus; assay: Anti-fibrotic activity in C57/Bl6 mouse assessed as reduction in bleomycin-induced galectin-3 levels in bronchoalveolar lavage fluid at 3.5 mg/kg administered intratracheally as 4 doses every 48 hrs commencing on day 18 of bleomycin induction measured on day 26 post last dose by ELISA; format: functional; design: scale not given: the % may be the effect or the level left
# [24] = system: Mus musculus; assay: Anti-fibrotic activity in C57/Bl6 mouse assessed as reduction in bleomycin-induced galectin-3 levels in bronchoalveolar lavage fluid at 0.35 mg/kg administered intratracheally as 4 doses every 48 hrs commencing on day 18 of bleomycin induction measured on day 26 post last dose by ELISA; format: functional; design: scale not given: the % may be the effect or the level left
# [25] = system: Mus musculus; assay: Anti-fibrotic activity in C57/Bl6 mouse assessed as reduction in bleomycin-induced galectin-3 levels in serum at 0.35 to 3.5 mg/kg administered intratracheally as 4 doses every 48 hrs commencing on day 18 of bleomycin induction measured on day 26 post last dose by ELISA; format: functional, organism-based
# T4 sequence (O00182 whole entry): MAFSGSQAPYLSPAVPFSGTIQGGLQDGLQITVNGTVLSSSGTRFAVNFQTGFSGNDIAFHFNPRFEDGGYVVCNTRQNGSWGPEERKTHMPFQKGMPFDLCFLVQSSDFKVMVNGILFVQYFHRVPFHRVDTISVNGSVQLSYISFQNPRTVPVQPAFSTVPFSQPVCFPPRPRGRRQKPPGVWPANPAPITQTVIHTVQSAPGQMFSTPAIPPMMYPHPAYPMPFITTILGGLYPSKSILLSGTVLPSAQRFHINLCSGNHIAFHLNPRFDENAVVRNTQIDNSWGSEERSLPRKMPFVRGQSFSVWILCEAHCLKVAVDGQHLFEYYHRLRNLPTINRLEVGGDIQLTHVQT
# Sequence of Galectin-3 (Homo sapiens, UniProt P17931) (P17931 whole entry): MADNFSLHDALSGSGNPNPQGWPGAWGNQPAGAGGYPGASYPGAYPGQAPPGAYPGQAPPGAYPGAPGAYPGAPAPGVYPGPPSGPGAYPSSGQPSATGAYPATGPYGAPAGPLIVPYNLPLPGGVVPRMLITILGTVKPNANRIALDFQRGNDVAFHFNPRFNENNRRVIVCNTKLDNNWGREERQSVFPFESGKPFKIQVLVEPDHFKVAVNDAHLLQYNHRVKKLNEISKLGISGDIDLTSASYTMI
# Sequence of Galectin-1 (P09382 whole entry): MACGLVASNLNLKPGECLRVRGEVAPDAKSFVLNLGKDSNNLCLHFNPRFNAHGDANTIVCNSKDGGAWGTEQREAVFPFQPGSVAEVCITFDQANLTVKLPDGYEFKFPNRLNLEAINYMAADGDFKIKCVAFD
# Sequence of Galectin-3 (Homo sapiens, UniProt P17931, R186K) (P17931 2-250 R186K limits assumed): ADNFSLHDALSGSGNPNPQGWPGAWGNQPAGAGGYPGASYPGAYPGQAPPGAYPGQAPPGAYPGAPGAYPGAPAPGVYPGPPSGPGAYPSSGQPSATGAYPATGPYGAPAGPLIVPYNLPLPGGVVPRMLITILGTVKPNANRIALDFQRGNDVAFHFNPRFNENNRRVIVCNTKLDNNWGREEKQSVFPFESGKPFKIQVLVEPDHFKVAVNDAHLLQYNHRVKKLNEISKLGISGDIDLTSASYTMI
# Sequence of Galectin-3 (Homo sapiens, UniProt P17931, R186S) (P17931 2-250 R186S limits assumed): as the sequence (P17931 2-250 R186K limits assumed) above, with K185S counted along it
# Sequence of Galectin-3 (Homo sapiens, UniProt P17931, R144K) (P17931 2-250 R144K limits assumed): as the sequence (P17931 2-250 R186K limits assumed) above, with R143K, K185R counted along it
# Sequence of Galectin-3 (Homo sapiens, UniProt P17931, K176L) (P17931 2-250 K176L limits assumed): as the sequence (P17931 2-250 R186K limits assumed) above, with K175L, K185R counted along it
# Sequence of Galectin-3 (Homo sapiens, UniProt P17931, R144S) (P17931 2-250 R144S limits assumed): as the sequence (P17931 2-250 R186K limits assumed) above, with R143S, K185R counted along it
Structure (SMILES),Kd [1] [µM],Kd [2] [µM],Kd [3] [µM],Kd [4] [µM],Kd [5] [µM],Kd [6] [µM],solubility [8],Kd [9] [µM],further results
O=C(N[C@H]1[C@@H](O)[C@@H](CO)O[C@@H](S[C@@H]2O[C@H](CO)[C@H](O)[C@H](NC(=O)c3ccc4ccccc4c3)[C@H]2O)[C@@H]1O)c1ccc2ccccc2c1,0.16,1.7,–,–,–,–,–,–,–
COc1ccc2cc(CO[C@H]3[C@@H](O)[C@@H](CO)O[C@@H](S[C@@H]4O[C@H](CO)[C@H](O)[C@H](OCc5cc6ccc(OC)cc6oc5=O)[C@H]4O)[C@@H]3O)c(=O)oc2c1,0.19,34,140,> 500,84,8.3,Soluble,–,Kd [7]: 45 µM
O=c1oc2ccc(Cl)cc2cc1CO[C@H]1[C@@H](O)[C@@H](CO)O[C@@H](S[C@@H]2O[C@H](CO)[C@H](O)[C@H](OCc3cc4cc(Cl)ccc4oc3=O)[C@H]2O)[C@@H]1O,1.4,60,–,–,71,140,Soluble,21,–
O=c1oc2ccccc2cc1CO[C@H]1[C@@H](O)[C@@H](CO)O[C@@H](S[C@@H]2O[C@H](CO)[C@H](O)[C@H](OCc3cc4ccccc4oc3=O)[C@H]2O)[C@@H]1O,0.091,5,41,210,–,1.6,Soluble,16,Kd [10]: 6.9 µM; Kd [11]: 3 µM; Kd [12]: 6.1 µM; Kd [13]: 110 µM; Kd [14]: 50 µM; Kd [15]: 0.27 µM; Activity [16]: 58%; Activity [17]: inactive; Activity [18]: Active; Activity [19]: inactive; Activity [20]: inactive; Activity [21]: inactive; Activity [22]: inactive; Activity [23]: 66%; Activity [24]: 49%; Activity [25]: Active
